We go through seven compounds from ChEMBL document CHEMBL1201862, “PubChem BioAssay data set” (2004).

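Where inhibition never reached the appropriate level, the endpoint shown equals the highest concentration tested. Otherwise, values were interpolated linearly from a five-concentration, 48-hour dose response in 96-well plates. The concentration for 50% growth inhibition is given as GI50.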 Activity calls are given as the source filed them. Rule as the data show it: active = GI50 up to about 1.1 µM and inactive = higher. Where a SMILES comes first, the peptide text is derived from it. [ ]: non-standard residue; d: D form. Aoe = N[C@@H](CCCCCC(=O)[C@@H]1CO1)C(=O)O Some results are limits rather than exact numbers.

Some test systems named below: NCI-H23; ACHN; TK-10; NCI-H226; SW-620; NCI-H522; Hs-578T; HOP-92; UACC-62; BT-549; SK-OV-3; DU-145; OVCAR-8; HCT-15; EKVX; KM12; SNB-75; LOX IMVI; A498; SN12C.
What all share (experiment): NCI anticancer screen, dose series, 48 h

Consider `Cc1[nH]n(-c2ncc(C(=O)O)c(=O)[nH]2)c(=O)c1CCO`, for which the GI50 with NCI-H23, in the experiment on ACHN, in the experiment on TK-10, in the experiment on NCI-H226, in the experiment with SW-620 and in the experiment with NCI-H522 was > 100 µM (inactive) in each case. In addition, the GI50 in the experiment with Hs-578T is > 100 µM (inactive); in the experiment with HOP-92 it was > 88.1 µM (inactive); in the experiment on UACC-62 it was > 100 µM (inactive); in the experiment with BT-549 it was > 100 µM (inactive); in the experiment with SK-OV-3, > 100 µM (inactive); in the experiment on DU-145, > 100 µM (inactive). For the same compound, the GI50 in the experiment with OVCAR-8 was > 100 µM (inactive); in the experiment on HCT-15, greater than 100 µM; in the experiment with EKVX, > 100 µM (inactive); with KM12, > 100 µM (inactive); in the experiment on SNB-75 it was > 88.5 µM (inactive); with LOX IMVI, > 100 µM (inactive). Also, the GI50 with A498 and in the experiment with SN12C was > 100 µM (inactive) throughout.
For `O=C(Nc1ccccc1)c1cc(S(=O)(=O)Nc2nc3cccnc3[nH]2)c(SSc2cc(Cl)c(C(=O)Nc3ccccc3)cc2S(=O)(=O)Nc2nc3cccnc3[nH]2)cc1Cl`, the GI50 in the experiment with NCI-H23, in the experiment on ACHN, in the experiment with TK-10, with NCI-H226, in the experiment on SW-620 and with NCI-H522 was > 100 µM (inactive) each time. In addition, the GI50 in the experiment on Hs-578T, in the experiment with HOP-92, in the experiment with UACC-62, in the experiment on BT-549, in the experiment with SK-OV-3 and in the experiment on DU-145 was > 100 µM (inactive) throughout. The GI50 was > 100 µM (inactive) with OVCAR-8; greater than 100 µM with HCT-15; > 100 µM (inactive) in the experiment with EKVX; > 100 µM (inactive) in the experiment on KM12; > 100 µM (inactive) in the experiment with SNB-75; > 100 µM (inactive) in the experiment on LOX IMVI. Also, the GI50 with A498 and with SN12C was > 100 µM (inactive) in each case.
For the compound `O=C1N[C@@H](Cc2ccccc2)C(=O)N2CCC[C@@H]2C(=O)N[C@@H](CCCCCC(=O)[C@@H]2CO2)C(=O)N[C@H]1Cc1ccccc1` [TRAPOXIN B] (cyclo(FF[dP][Aoe])), the GI50 in the experiment on ACHN is 0.00124 µM (active); with TK-10 it was 0.00368 µM (active); in the experiment on NCI-H226, 0.222 µM (active); in the experiment with SW-620, 0.000305 µM (active); in the experiment with NCI-H522 it was 0.00052 µM (active); in the experiment with Hs-578T, 0.000685 µM (active). The GI50 in the experiment on HOP-92 is 0.00574 µM (active); with UACC-62, 0.000435 µM (active); in the experiment on BT-549 it was 0.389 µM (active); in the experiment with SK-OV-3, 0.05 µM (active); in the experiment with DU-145, 0.00136 µM (active); with OVCAR-8, < 0.000212 µM (active). The GI50 in the experiment on HCT-15 was 0.0432 µM; with EKVX, 0.0632 µM (active); in the experiment on KM12 it was 0.000735 µM (active); in the experiment with SNB-75 it was 0.00366 µM (active); in the experiment with LOX IMVI, 0.000472 µM (active); in the experiment with A498, 0.518 µM (active). For the same compound, in the experiment on SN12C, the GI50 is 0.0104 µM (active).
For `Cc1ccc([N+](=O)[O-])cc1S(=O)(=O)Nc1ccc(C2=NN(C(=O)c3ccccc3)C(c3cccs3)C2)cc1` (stereo not given), the GI50 in the experiment with NCI-H23 is 15.6 µM (inactive); in the experiment with ACHN, 25.4 µM (inactive); in the experiment with TK-10, 21.4 µM (inactive); in the experiment with NCI-H226 it was 21.5 µM (inactive); in the experiment with SW-620, 45.5 µM (inactive); in the experiment on NCI-H522, 12.9 µM (inactive). The GI50 in the experiment with Hs-578T was 27 µM (inactive); in the experiment with HOP-92, 12.6 µM (inactive); in the experiment on BT-549, 25.3 µM (inactive); in the experiment on SK-OV-3, 20.6 µM (inactive); in the experiment on DU-145, 34.2 µM (inactive); in the experiment on OVCAR-8, 22.4 µM (inactive). Moreover, the GI50 in the experiment with HCT-15 is 21 µM; in the experiment on EKVX it was 21.5 µM (inactive); in the experiment on KM12, 32.7 µM (inactive); in the experiment with SNB-75, 20.2 µM (inactive); in the experiment with LOX IMVI it was 30.8 µM (inactive); in the experiment on A498, 10.5 µM (inactive). For the same compound, the GI50 with SN12C was 22.4 µM (inactive).
With `O=C1c2cc(I)ccc2N2CCN=C2N1Cc1ccccc1`, the GI50 in the experiment with NCI-H23 was > 100 µM (inactive); with ACHN, 51.2 µM (inactive); in the experiment with TK-10 it was > 100 µM (inactive); in the experiment with NCI-H226, > 100 µM (inactive); with SW-620 it was > 100 µM (inactive); in the experiment with NCI-H522, > 100 µM (inactive). Moreover, the GI50 in the experiment with Hs-578T was 72.1 µM (inactive); in the experiment with HOP-92, 17.7 µM (inactive); with BT-549, 49.9 µM (inactive); in the experiment on SK-OV-3, 47.4 µM (inactive); in the experiment with DU-145 it was > 100 µM (inactive); with OVCAR-8, 55 µM (inactive). The GI50 with HCT-15 was greater than 100 µM; in the experiment with EKVX, 22.1 µM (inactive); in the experiment with KM12, > 100 µM (inactive); in the experiment with SNB-75, 19.7 µM (inactive); in the experiment with LOX IMVI, > 100 µM (inactive); with A498, 0.723 µM (active). Moreover, the GI50 with SN12C is > 100 µM (inactive).
As for `O=C(Cc1ccccc1)Nn1c(-c2ccccc2)nc2ccccc2c1=O`, the GI50 in the experiment on NCI-H23, in the experiment with ACHN, in the experiment on TK-10, in the experiment with NCI-H226, in the experiment with SW-620 and with NCI-H522 was > 100 µM (inactive) throughout. Further, the GI50 in the experiment on Hs-578T is 42.3 µM (inactive); in the experiment on HOP-92, > 100 µM (inactive); in the experiment with UACC-62, > 100 µM (inactive); in the experiment with BT-549, > 100 µM (inactive); in the experiment with SK-OV-3, > 100 µM (inactive); with DU-145, > 100 µM (inactive). Further, the GI50 was > 100 µM (inactive) with OVCAR-8; > 100 µM (inactive) in the experiment with EKVX; > 100 µM (inactive) with KM12; 8.83 µM (inactive) with SNB-75; > 100 µM (inactive) in the experiment with LOX IMVI; 62.7 µM (inactive) in the experiment with A498. Besides, the GI50 in the experiment on SN12C is > 100 µM (inactive).
Turning to `CC(=O)Oc1ccc(C)c2c1[C@H]1CC[C@]3(C)[C@@H](OC(C)=O)CC[C@H]3[C@@H]1CC2`, the GI50 in the experiment with NCI-H23 is 16.8 µM (inactive); with ACHN, 16.2 µM (inactive); in the experiment with TK-10 it was 26.5 µM (inactive); in the experiment with NCI-H226, 21.8 µM (inactive); in the experiment on SW-620 it was 18.9 µM (inactive); in the experiment with NCI-H522, 17.7 µM (inactive). The GI50 in the experiment on Hs-578T is 23 µM (inactive); with HOP-92, 16.9 µM (inactive); with UACC-62, 19.9 µM (inactive); in the experiment on BT-549, 17.5 µM (inactive); in the experiment on DU-145, 26.9 µM (inactive); in the experiment with OVCAR-8 it was 22.4 µM (inactive). The GI50 in the experiment on HCT-15 is 17.8 µM; in the experiment on EKVX it was 15.5 µM (inactive); in the experiment with KM12 it was 18.6 µM (inactive); in the experiment on SNB-75, 24.9 µM (inactive); in the experiment with LOX IMVI, 17 µM (inactive); with A498, 17.6 µM (inactive). Further, in the experiment with SN12C, the GI50 was 18.8 µM (inactive).
